Test results from ChEMBL document CHEMBL3758159, “Polycyclic amines as chloroquine resistance modulating agents in Plasmodium falciparum” (Bioorg Med Chem Lett, 2016).
The source made the active and inactive calls. No cut-off for these calls is given here.

Experiments:
[1] = Inhibition of voltage-gated calcium channel in Wistar rat synaptoneurosomes after 30 mins by fluorescent ratiometric indicator method
Plasmodium falciparum [2] = test: Antiplasmodial activity against multidrug resistant Plasmodium falciparum Dd2 by spectroscopic method; assay type: functional, organism-based
CHO = test: Cytotoxicity against CHO cells by MTT assay; assay type: cell-based; conditions: Cricetulus griseus
[3] = system: Plasmodium falciparum NF54; test: Inhibition of voltage-gated calcium channel in Plasmodium flaciparum NF54 cells assessed as potentiation of choloroquine induced antimalarial activity by measuring chloroquine IC50 in presence of compound at 1 uM
Plasmodium falciparum [4] = test: Antiplasmodial activity against chloroquine sensitive Plasmodium falciparum NF54 by spectroscopic method; assay type: functional, organism-based
Rattus norvegicus = species: Rattus norvegicus; test: Inhibition of voltage-gated calcium channel in Wistar rat synaptoneurosomes at 100 uM after 30 mins by fluorescent ratiometric indicator method
[5] = Selectivity index, ratio of IC50 for CHO cells to IC50 for chloroquine sensitive Plasmodium falciparum NF54; assay type: toxicity, cell-based; conditions: hamster, read-out: Ratio IC50
[6] = system: Plasmodium falciparum Dd2; test: Inhibition of voltage-gated calcium channel in Plasmodium flaciparum Dd2 cells assessed as potentiation of choloroquine induced antimalarial activity by measuring ratio of chloroquine IC50 in presence to absence of compound at 1 uM
[7] = system: Plasmodium falciparum Dd2; test: Inhibition of voltage-gated calcium channel in Plasmodium flaciparum Dd2 cells assessed as reversal of choloroquine resistance at 1 uM relative to control; set-up: scale not given: the % may be the effect or the level left
[8] = system: Plasmodium falciparum Dd2; test: Inhibition of voltage-gated calcium channel in Plasmodium flaciparum Dd2 cells assessed as reversal of choloroquine resistance at 0.5 uM relative to control; set-up: scale not given: the % may be the effect or the level left
[9] = system: Plasmodium falciparum Dd2; test: Inhibition of voltage-gated calcium channel in Plasmodium flaciparum Dd2 cells assessed as reversal of choloroquine resistance at 0.8 uM relative to control; set-up: scale not given: the % may be the effect or the level left

SMILES	IC50 [1] [µM]	IC50 (Plasmodium falciparum [2]) [µM]	IC50 (CHO) [µM]	Activity [3]	IC50 (Plasmodium falciparum [4]) [µM]	inhibition (Rattus norvegicus) [%]	selectivity ratio [5]	Ratio IC50 [6]	Activity [7] [%]	Activity [8] [%]	Activity [9] [%]
c1ccc(CNC23OC4C5C6CC(C7C6C4C72)C53)cc1 (stereo unspecified)	86	> 10	> 10	inactive	> 10	52	–	–	–	–	–
O=[N+]([O-])c1ccc(CNC23OC4C5C6CC(C7C6C4C72)C53)cc1 (stereo unspecified)	–	54.8	> 322	inactive	0.718	48	> 449	0.65	25	–	–
O=C(OCCNC12OC3C4C5CC(C6C5C3C61)C42)c1cccc(/C=C/[N+](=O)[O-])c1 (stereo unspecified)	0.98	34.5	> 254	inactive	26.2	> 95	> 9.7	0.55	45	–	–
CN(C)c1cccc2cc(S(=O)(=O)NCCN3C4C5C6CC7C8C6C4C8C3(O)C75)ccc12 (stereo unspecified)	0.48	6.25	119	inactive	3.76	> 95	31.7	0.19	81	–	–
COc1ccc(CCN(C)CCCC(C#N)(c2ccc(OC)c(OC)c2)C(C)C)cc1OC (stereo unspecified)	–	–	–	–	–	–	–	0.27	73	47	63
O=[N+]([O-])c1ccc(NCCCNC23CC4CC(CC(C4)C2)C3)c([N+](=O)[O-])c1	–	18.8	8.01	–	1.13	12	7.1	–	–	–	–
CN(C)c1cccc2c(S(=O)(=O)NCCCNC34CC5CC(CC(C5)C3)C4)cccc12	0.27	7.01	7.4	inactive	2.83	> 95	2.6	0.35	65	–	–
c1ccc(CNC23CC4CC(CC(C4)C2)C3)cc1	–	–	> 414	–	126	40	> 3.3	–	–	–	–
CCN(CC)CCCC(C)Nc1ccnc2cc(Cl)ccc12 (stereo unspecified) [CHLOROQUINE]	–	–	35.8	–	–	–	–	–	–	–	–
COc1ccc(CNC23CC4CC(CC(C4)C2)C3)cc1	–	–	> 368	–	39.4	71	> 9.4	–	–	–	–
OC12C3C4CC5C6C4C1C6C(C53)N2CCN1CCN(Cc2ccccc2)CC1 (stereo unspecified)	100	6.28	> 265	inactive	9.09	51	> 29.1	0.81	19	–	–
O=[N+]([O-])c1ccc(CNC23CC4CC(CC(C4)C2)C3)cc1	–	–	> 349	–	74	86	> 4.7	–	–	–	–
COCCOC(=O)C1=C(C)NC(C)=C(C(=O)OC(C)C)C1c1cccc([N+](=O)[O-])c1 (stereo unspecified) [NIMODIPINE]	0.008	–	–	–	–	–	–	–	–	–	–
N#Cc1c2ccccc2cn1CCCNC12CC3CC(CC(C3)C1)C2	100	3.89	8.2	inactive	3.83	54	2.1	0.58	42	–	–
OC12C3C4CC5C6C4C1C6C(C53)N2Cc1ccccc1 (stereo unspecified)	35	13.3	84.8	inactive	7.62	> 95	11.1	0.36	64	–	–
